Assay results from patent US5336673A, “3-substituted cephem compounds” (priority 1990, dated 1994).
≈ marks a conversion by molar mass, not a printed value. Like-named read-outs stand apart in the source and are kept apart here.

What was measured:
Assay type in all cases: cell-based
[1] = tested on: Streptococcus pyogenes A 308; experiment: Antibacterial activity, MIC by Agar dilution method, standard test strain 1; details: A308, 10^7 CFU/ml, 37° C., 18 hours
Protocol: (§1) The antibacterial activity was determined by an Agar dilution method as described below.
(§2) That is, the two-fold serial dilutions of the antibacterial compounds (1000 μg compound/ml) were prepared and dispersed in Muller Hinton Agar in a petri dish to a concentration of 100~0.002 μg/ml. The culture broths of standard test strains were inoculated on the medium to a concentration 10^7 CFU/ml, and incubated at 37° C. for 18 hours. The concentration of compounds(I) at which the strains were not grown was regarded as minimum inhibition concentration (MIC).
(§3) The results of antibacterial activity test of the representative examples of the compound (I) against 20 standard test strains shown in terms of MIC were indicated in Table 1.
1. Streptococcus pyogenes A 308

[2] = tested on: Streptococcus pyogenes A 77; experiment: Antibacterial activity, MIC by Agar dilution method, standard test strain 2; details: A77, 10^7 CFU/ml, 37° C., 18 hours
Protocol: as §1, §2, §3
2. Streptococcus pyogenes A 77

[3] = tested on: Streptococcus faecium MD 86; experiment: Antibacterial activity, MIC by Agar dilution method, standard test strain 3; details: Enterococcus faecium, MD86, 10^7 CFU/ml, 37° C., 18 hours
Protocol: as §1, §2, §3
3. Streptococcus faecium MD 86

[4] = tested on: Staphylococcus aureus SG 511; experiment: Antibacterial activity, MIC by Agar dilution method, standard test strain 4; details: SG511, 10^7 CFU/ml, 37° C., 18 hours
Protocol: as §1, §2, §3
4. Staphylococcus aureus SG 511

[5] = tested on: Staphyloccus aureus 285; experiment: Antibacterial activity, MIC by Agar dilution method, standard test strain 5; details: 10^7 CFU/ml, 37° C., 18 hours
Protocol: as §1, §2, §3
5. Staphyloccus aureus 285

[6] = tested on: Staphylococcus aureus 503; experiment: Antibacterial activity, MIC by Agar dilution method, standard test strain 6; details: 10^7 CFU/ml, 37° C., 18 hours
Protocol: as §1, §2, §3
6. Staphylococcus aureus 503

[7] = tested on: Escherichia coli O 55; experiment: Antibacterial activity, MIC by Agar dilution method, standard test strain 7
Protocol: as §1, §2, §3

[8] = tested on: Escherichia coli DC O; experiment: Antibacterial activity, MIC by Agar dilution method, standard test strain 8
Protocol: as §1, §2, §3

[9] = tested on: Escherichia coli DC 2; experiment: Antibacterial activity, MIC by Agar dilution method, standard test strain 9; details: DC2; Escherichia coli DC 2; 10^7 CFU/ml, 37° C., 18 hours; read-out: MIC
Protocol: as §1, §2, §3

[10] = tested on: Escherichia coli TEM; experiment: Antibacterial activity, MIC by Agar dilution method, standard test strain 10; details: Escherichia coli TEM; 10^7 CFU/ml, 37° C., 18 hours; read-out: MIC
Protocol: as §1, §2, §3

[11] = tested on: Escherichia coli 1507E; experiment: Antibacterial activity, MIC by Agar dilution method, standard test strain 11; details: Escherichia coli 1507E; 10^7 CFU/ml, 37° C., 18 hours; read-out: MIC
Protocol: as §1, §2, §3

[12] = tested on: Pseudomonas aeruginosa 9027; experiment: Antibacterial activity, MIC by Agar dilution method, standard test strain 12; details: 10^7 CFU/ml, 37° C., 18 hours
Protocol: as §1, §2, §3
12. Pseudomonas aeruginosa 9027

[13] = tested on: Pseudomonas aeruginosa 1592E; experiment: Antibacterial activity, MIC by Agar dilution method, standard test strain 13; details: 10^7 CFU/ml, 37° C., 18 hours
Protocol: as §1, §2, §3
13. Pseudomonas aeruginosa 1592E

[14] = tested on: Pseudomonas aeruginosa 1771; experiment: Antibacterial activity, MIC by Agar dilution method, standard test strain 14; details: 10^7 CFU/ml, 37° C., 18 hours
Protocol: as §1, §2, §3
14. Pseudomonas aeruginosa 1771

[15] = tested on: Pseudomonas aeruginosa 1771M; experiment: Antibacterial activity, MIC by Agar dilution method, standard test strain 15; details: 18 h
Protocol: as §1, §2, §3
15. Pseudomonas aeruginosa 1771M

[16] = tested on: Salmonella typhimurium; experiment: Antibacterial activity, MIC by Agar dilution method, standard test strain 16; details: Salmonella enterica, 10^7 CFU/ml, 37° C., 18 hours
Protocol: as §1, §2, §3
16. Salmonella typhimurium

[17] = tested on: Klebsiella oxytoca 1082E; experiment: Antibacterial activity, MIC by Agar dilution method, standard test strain 17; details: 10^7 CFU/ml, 37° C., 18 hours
Protocol: as §1, §2, §3

[18] = tested on: Klebsiella aerogenes 1522E; experiment: Antibacterial activity, MIC by Agar dilution method, standard test strain 18; details: Klebsiella aerogenes 1522E; 10^7 CFU/ml, 37° C., 18 hours; read-out: MIC
Protocol: as §1, §2, §3
18. Klebsiella aerogenes 1522E

[19] = tested on: Enterobacter cloacae P99; experiment: Antibacterial activity, MIC by Agar dilution method, standard test strain 19; details: P99, 18 h
Protocol: as §1, §2, §3
19. Enterobacter cloacae P99

[20] = tested on: Enterobacter cloacae 1321E; experiment: Antibacterial activity, MIC by Agar dilution method, standard test strain 20; details: Enterobacter cloacae 1321E; 10^7 CFU/ml, 37° C., 18 hours; read-out: MIC
Protocol: as §1, §2, §3
20. Enterobacter cloacae 1321E

[21] = tested on: Gram-positive strains as well as Gram-negative strains including Pseudomonas; experiment: Antibacterial activity (summary in words); details: Gram-positive and Gram-negative strains
Protocol: as §1, §2

[22] = Escherichia coli DC O, 10^7 CFU/ml, 37° C., 18 hours, read-out: MIC

SMILES	MIC [1]	MIC [2]	MIC [3]	MIC [4]	MIC [5]	MIC [6]	MIC ([7]; Escherichia coli, O55, 18 h)	MIC [9]	MIC [10]	MIC [11]	MIC [12]	MIC [13]	MIC [14]	MIC [15]	MIC [16]	MIC [17]	MIC [18]	MIC [19]	MIC [20]	antibacterial activity (in words) [21]	also measured
CO/N=C(\C(=O)N[C@@H]1C(=O)N2C(C(=O)[O-])=C(C[N+]3(N)CCCC3)CS[C@H]12)c1csc(N)n1 [Example 1, (6R,7R)-7-[(Z)-2-(2-aminothiazol-4-yl)-2-methoxyiminoacetamido]-3-(1-aminopyrrolidiniummethyl)ceph-3-em-4-carboxylate]	0.025 µg/mL (≈ 0.0519 µM)	0.025 µg/mL (≈ 0.0519 µM)	> 100 µg/mL	6.26 µg/mL (≈ 13 µM)	12.5 µg/mL (≈ 26 µM)	1.56 µg/mL (≈ 3.25 µM)	0.195 µg/mL (≈ 0.405 µM)	0.391 µg/mL (≈ 0.812 µM)	0.391 µg/mL (≈ 0.812 µM)	0.391 µg/mL (≈ 0.812 µM)	100 µg/mL (≈ 208 µM)	100 µg/mL (≈ 208 µM)	50 µg/mL (≈ 104 µM)	3.12 µg/mL (≈ 6.49 µM)	0.781 µg/mL (≈ 1.62 µM)	12.5 µg/mL (≈ 26 µM)	0.195 µg/mL (≈ 0.405 µM)	> 100 µg/mL	0.098 µg/mL (≈ 0.204 µM)	excellent antibacterial activity	MIC [8, 22]: 0.195 µg/mL (≈ 0.405 µM)
CO/N=C(\C(=O)N[C@@H]1C(=O)N2C(C(=O)[O-])=C(C[N+]3(N)CCc4ccccc4C3)CS[C@H]12)c1csc(N)n1 (stereo partly drawn) [Example 5, (6R,7R)-7-[(Z)-2-(2-aminothiazol-4-yl)-2-methoxyiminoacetamido]-3-[(2-amino-1,2,3,4-tetrahydroisoquinolin-2-ium)methyl]-ceph-3-em-4-carboxylate]	0.049 µg/mL (≈ 0.0901 µM)	0.013 µg/mL (≈ 0.0239 µM)	50 µg/mL (≈ 92 µM)	1.56 µg/mL (≈ 2.88 µM)	6.25 µg/mL (≈ 11.5 µM)	0.781 µg/mL (≈ 1.44 µM)	0.391 µg/mL (≈ 0.719 µM)	0.781 µg/mL (≈ 1.44 µM)	0.781 µg/mL (≈ 1.44 µM)	0.781 µg/mL (≈ 1.44 µM)	50 µg/mL (≈ 92 µM)	50 µg/mL (≈ 92 µM)	50 µg/mL (≈ 92 µM)	1.56 µg/mL (≈ 2.88 µM)	0.781 µg/mL (≈ 1.44 µM)	12.5 µg/mL (≈ 23 µM)	0.013 µg/mL (≈ 0.0239 µM)	100 µg/mL (≈ 184 µM)	0.013 µg/mL (≈ 0.0239 µM)	excellent antibacterial activity	MIC [8, 22]: 0.391 µg/mL (≈ 0.719 µM)
CO/N=C(\C(=O)N[C@@H]1C(=O)N2C(C(=O)[O-])=C(CN3CC[N+](C)(N)CC3)CS[C@H]12)c1csc(N)n1 [Example 11, (6R,7R)-7-[(Z)-2-(2-aminothiazol-4-yl)-2-methoxyiminoacetamido]-3-[(1-amino-1-methyl-4-piperazinium)methyl]-ceph-3-em-4-carboxylate]	0.013 µg/mL (≈ 0.0255 µM)	0.007 µg/mL (≈ 0.0137 µM)	> 100 µg/mL	1.56 µg/mL (≈ 3.06 µM)	12.5 µg/mL (≈ 24.5 µM)	0.781 µg/mL (≈ 1.53 µM)		0.781 µg/mL (≈ 1.53 µM)	0.391 µg/mL (≈ 0.766 µM)	0.781 µg/mL (≈ 1.53 µM)	50 µg/mL (≈ 97.9 µM)	50 µg/mL (≈ 97.9 µM)	25 µg/mL (≈ 49 µM)	1.56 µg/mL (≈ 3.06 µM)	0.391 µg/mL (≈ 0.766 µM)	6.25 µg/mL (≈ 12.2 µM)	0.391 µg/mL (≈ 0.766 µM)	100 µg/mL (≈ 196 µM)	0.195 µg/mL (≈ 0.382 µM)	excellent antibacterial activity	MIC ([7]; O55, Escherichia coli O 55, 10^7 CFU/ml, 37° C., 18 hours, read-out: MIC): 0.195 µg/mL (≈ 0.382 µM); MIC ([8]; Escherichia coli, 18 h): 0.781 µg/mL (≈ 1.53 µM)
